Laboratory results reported in patent US20080103199A1, “TREATMENT OF PERVASIVE DEVELOPMENTAL DISORDERS” (priority 2006, published 2008).
Where two headings read alike, the source gives them in different places.

Tests used:
submissive rats [1] = conditions: treatment of the submissive subject, 3 weeks; literature (Malatynska 2002); cited from earlier work
submissive rats [2] = experiment: Reduction of Submissive Behavior Model (RSBM) of depression, dominant-submissive rat food competition test; format: in vivo, Sprague-Dawley rats; conditions: treatment of submissive rats; unpublished observation
Text: In this study, the effects of COMPOUND #7 on dominant or submissive behavior in pairs of rats competing for food are examined. It has been shown that anti-manic drugs, including anticonvulsants, decrease dominance and antidepressant drugs reduce submissiveness. This model uses dominant behavior as a model of mania and submissive behavior as a model of depression. The dominance and submissiveness is defined in a competition test and measured as the relative success of two food-restricted rats to gain access to a feeder. Rats are randomly paired and placed in an apparatus allowing them to compete for a food reward. The dominant-submissive relationship develops over a 2-week period. The submissive or dominant animals in pairs selected after 2 weeks of training were treated orally […] (b.i.d.) with COMPOUND #7 at 3 or 30 mg/kg for 5 weeks. The partner of the drug-treated animal was treated with vehicle.
The objective of this study was to determine if COMPOUND #7 is active in the Reduction of Submissive Behavior Model (RSBM) of depression and the Reduction of Dominant Behavior Model (RDBM) of mania. Measurements were made at two doses (3 and 30 mg/kg) after oral twice a day (b.i.d.) administration. The effect of the drug in the RSBM was compared to the effect of fluoxetine (10 mg/kg) and vehicle (0.5% methylcellulose). The effect of the drug in the RDBM was compared with the effect of lithium (100 mg/kg) and vehicle (0.5% methylcellulose). The endpoints measured were the development of a significant reduction of submissive or dominant behavior and its time of onset.
The DSR developed by two rats competing for food uses the apparatus in FIG. 1.
In the experiments described in this report Sprague-Dawley rats weighing 160 to 180 g were used. Testing for the development of a DSR between paired rats begins with the random assignment of rats into pairs. […]
The test involves placing each member of a pair in opposite chambers of the testing apparatus. […] The test is conducted once a day over a 5-minute period and the time spent on the feeder by each animal is recorded. […]

dominant rats = conditions: administered to dominant rats; literature (Malatynska 2002); cited from earlier work

Row | Compound | Effect on submissive behavior (submissive rats [1]) | Effect on competitive behavior of dominant rats (dominant rats) | other results
1 | CN(C)CCCN1c2ccccc2CCc2ccccc21 [imipramine] | reduced submissive behavior | – | –
2 | CC(N)Cc1ccccc1 (centres unmarked) [amphetamine, reference compound] | – | – | Effect on submissive behavior (submissive rats [2]): ineffective
3 | Clc1cccc(Cl)c1N=C1NCCN1 [clonidine] | – | significantly reduced competitive behavior | –
4 | CN1C(=O)CN=C(c2ccccc2)c2cc(Cl)ccc21 [diazepam] | ineffective | – | –
5 | CCCC(CCC)C(=O)[O-].[Na+] [sodium valproate] | – | significantly reduced competitive behavior | –
6 | CNCCCN1c2ccccc2CCc2ccccc21 [desipramine] | reduced submissive behavior | – | –
7 | NC(=O)N1c2ccccc2C=Cc2ccccc21 [carbamazepine] | – | significantly reduced competitive behavior | –
8 | CNCCC(Oc1ccc(C(F)(F)F)cc1)c1ccccc1 (centres unmarked) [fluoxetine] | reduced submissive behavior | – | –
